The experiment concerns the target T1, Androgen Receptor (AR) (Homo sapiens, UniProt P10275).
T1 construct: endogenous in cells; host or cells: VCaP
T1 sequence (P10275 1-920): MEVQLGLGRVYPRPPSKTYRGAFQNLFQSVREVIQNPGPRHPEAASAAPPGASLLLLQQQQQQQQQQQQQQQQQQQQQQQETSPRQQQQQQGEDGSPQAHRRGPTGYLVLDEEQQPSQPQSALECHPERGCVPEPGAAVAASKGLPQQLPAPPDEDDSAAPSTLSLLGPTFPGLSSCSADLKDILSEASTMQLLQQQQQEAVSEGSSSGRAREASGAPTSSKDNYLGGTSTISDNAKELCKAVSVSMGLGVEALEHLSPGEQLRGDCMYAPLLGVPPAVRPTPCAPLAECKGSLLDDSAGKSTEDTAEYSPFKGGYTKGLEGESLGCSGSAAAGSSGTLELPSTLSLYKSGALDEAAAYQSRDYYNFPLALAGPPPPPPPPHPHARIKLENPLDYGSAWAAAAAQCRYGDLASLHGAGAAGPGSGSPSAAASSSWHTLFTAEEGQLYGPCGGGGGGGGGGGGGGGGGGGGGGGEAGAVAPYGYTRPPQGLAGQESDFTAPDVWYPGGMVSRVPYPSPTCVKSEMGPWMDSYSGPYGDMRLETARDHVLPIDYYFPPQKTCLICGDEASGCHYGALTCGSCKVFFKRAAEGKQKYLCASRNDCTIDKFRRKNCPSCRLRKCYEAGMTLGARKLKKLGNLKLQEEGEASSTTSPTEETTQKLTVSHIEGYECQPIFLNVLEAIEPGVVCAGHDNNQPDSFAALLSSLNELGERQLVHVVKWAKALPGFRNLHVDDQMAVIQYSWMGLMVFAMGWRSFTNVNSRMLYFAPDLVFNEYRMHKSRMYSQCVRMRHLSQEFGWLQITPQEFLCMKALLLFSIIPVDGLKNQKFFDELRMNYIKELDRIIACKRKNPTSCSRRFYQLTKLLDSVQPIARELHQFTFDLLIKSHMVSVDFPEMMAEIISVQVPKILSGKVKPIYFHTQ
Kind of experiment: AR immunofluorescence staining, high content imager, VCaP cells. In kind it is cell-based. The note with it: for DC50: AR degradation by immunofluorescence; for Dmax: maximal AR degradation. The method in brief: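 VCaP cells treated with compound, fixed in 4% PFA (8% 2× solution added directly for low-adherence lines), permeabilised with 0.1% Triton X-100 and blocked. Stained overnight at 4° C with anti-AR antibody, then FITC anti-rabbit secondary plus phalloidin and DAPI/Hoechst. Read by high-content imaging.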

Take `COc1cc(O[C@H]2C[C@H](OC3CCN(c4ccc(C(=O)N[C@H]5C(C)(C)[C@H](Oc6cc(C)c(C#N)c(C)c6)C5(C)C)cc4)CC3)C2)ccc1C(=O)NC1CCC(=O)NC1=O` (stereo partly drawn) [Compound 55, N-(2,6-dioxopiperidin-3-yl)-2-methoxy-4-[(1r,3r)-3-{[1-(4-{[(1r,3r)-3-(4-cyano-3,5-dimethylphenoxy)-2,2,4,4-tetramethylcyclobutyl]carbamoyl}phenyl)piperidin-4-yl]oxy}cyclobutoxy]benzamide]: the DC50 (in general, the midpoint of the concentration-degradation curve) was under 1 nM and the Dmax (as a rule, the greatest extent of degradation seen) is at least 70%.
For `COc1cc(C(=O)NC2CCC(=O)NC2=O)ccc1N1CCN(C[C@H]2CN(c3ccc(C(=O)N[C@H]4C(C)(C)[C@H](Oc5cc(C)c(C#N)c(C)c5)C4(C)C)cc3)CCO2)CC1` (stereo partly drawn) [Compound 56, N-(2,6-dioxopiperidin-3-yl)-3-methoxy-4-(4-{[(2S)-4-(4-{[(1r,3r)-3-(4-cyano-3,5-dimethylphenoxy)-2,2,4,4-tetramethylcyclobutyl]carbamoyl}phenyl)morpholin-2-yl]methyl}piperazin-1-yl)benzamide] the same measures were under 1 nM and at least 70%.
For `COc1cc(O[C@H]2C(C)(C)[C@H](NC(=O)c3ccc(N4CCO[C@@H](CN5CCN(c6ccc(C(=O)NC7CCC(=O)NC7=O)cc6OC)CC5)C4)cc3)C2(C)C)ccc1C#N` (stereo partly drawn) [Compound 57, N-(2,6-dioxopiperidin-3-yl)-3-methoxy-4-(4-{[(2S)-4-(4-{[(1r,3r)-3-(4-cyano-3-methoxyphenoxy)-2,2,4,4-tetramethylcyclobutyl]carbamoyl}phenyl)morpholin-2-yl]methyl}piperazin-1-yl)benzamide] the same measures were under 1 nM and at least 70%.
For `COc1cc(O[C@H]2C(C)(C)[C@H](NC(=O)c3ccc(N4CCO[C@@H](CN5CCN(c6ccc(C(=O)NC7CCC(=O)NC7=O)c(OC)c6)CC5)C4)cc3)C2(C)C)ccc1C#N` (stereo partly drawn) [Compound 58, N-(2,6-dioxopiperidin-3-yl)-2-methoxy-4-(4-{[(2S)-4-(4-{[(1r,3r)-3-(4-cyano-3-methoxyphenoxy)-2,2,4,4-tetramethylcyclobutyl]carbamoyl}phenyl)morpholin-2-yl]methyl}piperazin-1-yl)benzamide] the same measures were under 1 nM and at least 70%.
As to `COc1cc(N2CCN(C[C@H]3CN(c4ccc(C(=O)N[C@H]5C(C)(C)[C@H](Oc6cc(C)c(C#N)c(C)c6)C5(C)C)cc4)CCO3)CC2)ccc1C(=O)NC1CCC(=O)NC1=O` (stereo partly drawn) [Compound 59, N-(2,6-dioxopiperidin-3-yl)-2-methoxy-4-(4-{[(2S)-4-(4-{[(1r,3r)-3-(4-cyano-3,5-dimethylphenoxy)-2,2,4,4-tetramethylcyclobutyl]carbamoyl}phenyl)morpholin-2-yl]methyl}piperazin-1-yl)benzamide], the DC50 is under 1 nM and the Dmax is at least 70%.
The matching figures for `COc1cc(O[C@H]2C(C)(C)[C@H](NC(=O)c3ccc(N4CCC(CN5CCN(c6ccc(C(=O)NC7CCC(=O)NC7=O)cc6OC)CC5)CC4)cc3)C2(C)C)ccc1C#N` (stereo partly drawn) [Compound 60, N-(2,6-dioxopiperidin-3-yl)-3-methoxy-4-(4-{[1-(4-{[(1r,3r)-3-(4-cyano-3-methoxyphenoxy)-2,2,4,4-tetramethylcyclobutyl]carbamoyl}phenyl)piperidin-4-yl]methyl}piperazin-1-yl)benzamide]: under 1 nM and at least 70%.
The matching figures for `Cc1cc(O[C@H]2C(C)(C)[C@H](NC(=O)c3ccc(N4CCOC(CN(C(C)C)[C@H]5C[C@@H](Oc6ccc(F)c(C(=O)N[C@H]7CCC(=O)NC7=O)c6)C5)C4)cc3)C2(C)C)cc(C)c1C#N` (stereo partly drawn) [Compound 61, 4-(2-{[(propan-2-yl)[(1r,3r)-3-(3-{[(3S)-2,6-dioxopiperidin-3-yl]carbamoyl}-4-fluorophenoxy)cyclobutyl]amino]methyl}morpholin-4-yl)-N-[(1r,3r)-3-(4-cyano-3,5-dimethylphenoxy)-2,2,4,4-tetramethylcyclobutyl]benzamide]: under 1 nM and 50 to 70%.
For `COc1cc(O[C@H]2C(C)(C)[C@H](NC(=O)c3ccc(N4CCOC(CN(C(C)C)[C@H]5C[C@@H](Oc6ccc(F)c(C(=O)N[C@H]7CCC(=O)NC7=O)c6)C5)C4)cc3)C2(C)C)ccc1C#N` (stereo partly drawn) [Compound 62, 4-(2-{[(propan-2-yl)[(1r,3r)-3-(3-{[(3S)-2,6-dioxopiperidin-3-yl]carbamoyl}-4-fluorophenoxy)cyclobutyl]amino]methyl}morpholin-4-yl)-N-[(1r,3r)-3-(4-cyano-3-methoxyphenoxy)-2,2,4,4-tetramethylcyclobutyl]benzamide] the same measures were under 1 nM and 50 to 70%.
For `Cc1cc(O[C@H]2C(C)(C)[C@H](NC(=O)c3ccc(N4CC5(C4)CN([C@H]4C[C@H](Oc6ccc(C(=O)N[C@H]7CCC(=O)NC7=O)c(F)c6)C4)CCO5)cc3)C2(C)C)cc(C)c1C#N` [Compound 63, N-[(1r,3r)-3-(4-cyano-3,5-dimethylphenoxy)-2,2,4,4-tetramethylcyclobutyl]-4-{8-[(1r,3r)-3-(4-{[(3S)-2,6-dioxopiperidin-3-yl]carbamoyl}-3-fluorophenoxy)cyclobutyl]-5-oxa-2,8-diazaspiro[3.5]nonan-2-yl}benzamide], the DC50 was under 1 nM and the Dmax lay in the range of 50 to 70%.
For the compound `Cc1cc(O[C@H]2C(C)(C)[C@H](NC(=O)c3ccc(N4CCC(CN5CCOCCCCOc6cc(C(=O)NC7CCC(=O)NC7=O)ccc6O[C@H]6C[C@H]5C6)CC4)cc3)C2(C)C)cc(C)c1C#N` (stereo partly drawn) [Compound 64, (1r,18r)-N-(2,6-dioxopiperidin-3-yl)-17-{[1-(4-{[(1r,3r)-3-(4-cyano-3,5-dimethylphenoxy)-2,2,4,4-tetramethylcyclobutyl]carbamoyl}phenyl)piperidin-4-yl]methyl}-2,9,14-trioxa-17-azatricyclo[16.1.1.0^3,8]icosa-3(8),4,6-triene-6-carboxamide], the DC50 is under 1 nM and the Dmax was 50 to 70%.
In turn, `Cc1cc(O[C@H]2C(C)(C)[C@H](NC(=O)c3ccc(N4CCO[C@@H](CN(C(C)C)[C@H]5C[C@H](Oc6ccc(C(=O)N[C@H]7CCC(=O)NC7=O)c(F)c6)C5)C4)cc3)C2(C)C)cc(C)c1C#N` [Compound 65, 4-[(2S)-2-{[(propan-2-yl)[(1r,3r)-3-(4-{[(3S)-2,6-2,2,4,4-dioxopiperidin-3-yl]carbamoyl}-3-fluorophenoxy)cyclobutyl]amino]methyl}morpholin-4-yl]-N-[(1r,3r)-3-(4-cyano-3,5-dimethylphenoxy)-2,2,4,4-tetramethylcyclobutyl]benzamide] yielded a DC50 of under 1 nM and a Dmax of 50 to 70%.
The matching figures for `COc1cc(C(=O)NC2CCC(=O)NC2=O)ccc1O[C@H]1C[C@H](N(CC2CCN(c3ccc(C(=O)N[C@H]4C(C)(C)[C@H](Oc5cc(C)c(C#N)c(C)c5)C4(C)C)cc3)CC2)C(C)C)C1` (stereo partly drawn) [Compound 66, N-(2,6-dioxopiperidin-3-yl)-3-methoxy-4-[(1r,3r)-3-[(propan-2-yl)({[1-(4-{[(1r,3r)-3-(4-cyano-3,5-dimethylphenoxy)-2,2,4,4-tetramethylcyclobutyl]carbamoyl}phenyl)piperidin-4-yl]methyl})amino]cyclobutoxy]benzamide]: under 1 nM and 50 to 70%.

(Values after patent US12427144B2, “Compounds and methods for the targeted degradation of androgen receptor” (Arvinas Operations, Inc., priority 2019, dated 2025).)
